Measurements from patent US8022102B2, “Unsaturated tetracyclic tetrahydrofuran derivatives” (Janssen Pharmaceutica, NV, priority 2004, dated 2011).
Counter-ions that a name gives are not always drawn. Like-named read-outs stand apart in the source and are kept apart here.

Tests used:
[1] = target: T1, human cloned 5-HT2A receptor (Homo sapiens, UniProt P28223); experiment: In vitro binding affinity for 5-HT2A receptor (radioligand binding)
T1 construct: expressed in transfected cells; host or cells: L929 cells
T1 sequence (P28223 whole entry): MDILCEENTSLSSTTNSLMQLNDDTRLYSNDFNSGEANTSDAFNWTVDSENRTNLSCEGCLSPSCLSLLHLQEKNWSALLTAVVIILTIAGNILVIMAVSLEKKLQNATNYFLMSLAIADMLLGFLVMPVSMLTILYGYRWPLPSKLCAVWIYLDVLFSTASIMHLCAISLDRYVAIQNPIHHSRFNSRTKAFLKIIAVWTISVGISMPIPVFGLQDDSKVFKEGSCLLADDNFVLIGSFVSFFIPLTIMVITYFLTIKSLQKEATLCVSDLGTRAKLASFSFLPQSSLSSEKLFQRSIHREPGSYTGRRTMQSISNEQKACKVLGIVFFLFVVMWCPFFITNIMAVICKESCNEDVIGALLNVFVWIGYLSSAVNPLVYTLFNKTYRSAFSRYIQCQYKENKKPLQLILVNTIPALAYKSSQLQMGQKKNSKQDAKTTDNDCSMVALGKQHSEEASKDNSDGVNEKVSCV
Description: During the incubation, the radioligands bind to the receptor. When equilibrium of binding is reached, the receptor bound radioactivity is separated from the non-bound radioactivity, and the receptor bound activity is counted. The interaction of the test compounds with the receptors is assessed in competition binding experiments. Various concentrations of the test compound are added to the incubation mixture containing the tissue preparation and the radioligand. Binding of the radioligand will be inhibited by the test compound in proportion to its binding affinity and its concentration. The affinities of the compounds for the 5-HT2 receptors were measured by means of radioligand binding studies conducted with: (a) human cloned 5-HT2A receptor, expressed in L929 cells using [^125I]R91150 as radioligand and (b) human cloned 5-HT2C receptor, expressed in CHO cells using [^3H]mesulergine as radioligand.

[2] = target: T2, human cloned 5-HT2C receptor (Homo sapiens, UniProt P28335); experiment: In vitro binding affinity for 5-HT2C receptor (radioligand binding)
T2 construct: expressed in transfected cells; host or cells: CHO cells
T2 sequence (P28335 33-458): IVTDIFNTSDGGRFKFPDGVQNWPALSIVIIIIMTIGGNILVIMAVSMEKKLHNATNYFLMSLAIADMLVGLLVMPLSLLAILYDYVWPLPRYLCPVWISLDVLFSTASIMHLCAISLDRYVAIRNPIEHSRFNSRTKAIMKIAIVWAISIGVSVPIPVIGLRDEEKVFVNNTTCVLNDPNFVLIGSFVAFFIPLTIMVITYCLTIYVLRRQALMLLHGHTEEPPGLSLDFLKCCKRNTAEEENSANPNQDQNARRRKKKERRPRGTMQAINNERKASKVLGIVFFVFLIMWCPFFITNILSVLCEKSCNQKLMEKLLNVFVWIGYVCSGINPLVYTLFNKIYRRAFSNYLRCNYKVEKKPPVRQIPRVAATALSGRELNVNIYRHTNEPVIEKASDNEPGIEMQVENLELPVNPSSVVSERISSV
Description: During the incubation, the radioligands bind to the receptor. When equilibrium of binding is reached, the receptor bound radioactivity is separated from the non-bound radioactivity, and the receptor bound activity is counted. The interaction of the test compounds with the receptors is assessed in competition binding experiments. Various concentrations of the test compound are added to the incubation mixture containing the tissue preparation and the radioligand. Binding of the radioligand will be inhibited by the test compound in proportion to its binding affinity and its concentration.

[3] = target: T3, NET (Rattus norvegicus, UniProt Q9WTR4); experiment: In vitro determination of NET reuptake inhibition ([3H]Nixosetine binding, rat brain cortex); conditions: rat brain cortex, [3H]Nixosetine
T3 construct: Cortex from rat brain was collected and homogenised; from tissue; host or cells: rat brain cortex
T3 sequence (Q9WTR4 1-597): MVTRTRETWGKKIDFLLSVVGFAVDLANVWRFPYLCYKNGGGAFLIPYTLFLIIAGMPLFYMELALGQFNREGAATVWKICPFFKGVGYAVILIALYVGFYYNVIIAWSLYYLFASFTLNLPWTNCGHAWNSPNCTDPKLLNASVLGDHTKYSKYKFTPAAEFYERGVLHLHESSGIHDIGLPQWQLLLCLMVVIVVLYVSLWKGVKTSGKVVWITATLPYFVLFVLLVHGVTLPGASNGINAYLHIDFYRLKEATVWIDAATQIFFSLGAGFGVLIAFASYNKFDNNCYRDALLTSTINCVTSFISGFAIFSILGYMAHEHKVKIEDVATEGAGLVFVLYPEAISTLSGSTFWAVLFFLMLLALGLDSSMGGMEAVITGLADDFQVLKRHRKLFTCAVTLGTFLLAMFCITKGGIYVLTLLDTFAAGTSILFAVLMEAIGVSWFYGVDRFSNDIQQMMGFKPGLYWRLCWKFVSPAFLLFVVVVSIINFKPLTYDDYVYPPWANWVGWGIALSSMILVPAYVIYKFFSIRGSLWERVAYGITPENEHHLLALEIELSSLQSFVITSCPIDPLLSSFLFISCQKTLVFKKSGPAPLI
Description: Cortex from rat brain was collected and homogenised using an Ultra-Turrax T25 and a Dual homogeniser in ice-cold homogenising buffer containing Tris, NaCl and KCl (50 mM, 120 mM and 5 mM, respectively, pH 7.4) prior to dilution to an appropriate protein concentration optimised for specific and non-specific binding. […] Membrane-bound activity was detected by filtration through a Packard Filtermate harvester onto GF/B Unifilterplates, washed with ice-cold Tris-HCl buffer, containing NaCl and KCl (50 mM, 120 mM and 4 mM; pH 7.4; 6×0.5 ml). Filters were allowed to dry for 24 h before adding scintillation fluid. Scintillation fluid was allowed to saturate filters for 24 h before counting in a Topcount scintillation counter. Percentage specific bound and competition binding curves were calculated using S-Plus software (Insightful).

[4] = target: T4, human Dopamine D2L receptor (Homo sapiens, UniProt P14416); experiment: In vitro binding affinity for human D2L receptor ([3H]Spiperone); conditions: human D2L receptor-transfected CHO cell membranes, [3H]Spiperone
T4 construct: expressed in transfected cells; host or cells: CHO cells
T4 sequence (P14416 whole entry): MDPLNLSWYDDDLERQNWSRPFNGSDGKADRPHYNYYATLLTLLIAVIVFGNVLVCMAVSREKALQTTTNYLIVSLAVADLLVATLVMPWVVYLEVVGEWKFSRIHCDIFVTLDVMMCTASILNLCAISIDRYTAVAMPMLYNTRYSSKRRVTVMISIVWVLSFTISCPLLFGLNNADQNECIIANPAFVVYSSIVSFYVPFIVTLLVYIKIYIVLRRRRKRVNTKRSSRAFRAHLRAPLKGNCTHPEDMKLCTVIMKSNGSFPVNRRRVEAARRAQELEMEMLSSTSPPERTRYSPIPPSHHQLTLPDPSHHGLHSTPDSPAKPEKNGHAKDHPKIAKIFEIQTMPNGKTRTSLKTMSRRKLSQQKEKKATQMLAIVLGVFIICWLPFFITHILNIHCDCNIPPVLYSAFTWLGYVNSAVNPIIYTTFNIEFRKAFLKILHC
Description: Frozen membranes of human Dopamine D2L receptor-transfected CHO cells were thawed, briefly homogenised using an Ultra-Turrax T25 homogeniser and diluted in Tris-HCl assay buffer containing NaCl, CaCl2, MgCl2, KCl (50, 120, 2, 1, and 5 mM respectively, adjusted to pH 7.7 with HCl) to an appropriate protein concentration optimised for specific and non-specific binding. Radioligand [^3H]Spiperone (NEN, specific activity ˜70 Ci/mmol) was diluted in assay buffer at a concentration of 2 nmol/L. Prepared radioligand (50 μl), along with 50 μl of either the 10% DMSO control, Butaclamol (10^−6 mol/l final concentration), or compound of interest, was then incubated (30 min, 37° C.) with 400 μl of the prepared membrane solution. Membrane-bound activity was filtered through a Packard Filtermate harvester onto GF/B Unifilterplates and washed with ice-cold Tris-HCl buffer (50 mM; pH 7.7; 6×0.5 ml). Filters were allowed to dry before adding scintillation fluid and counting in a Topcount scintillation counter. Percentage specific bound and competition binding curves were calculated using S-Plus software (Insightful).

[5] = human cloned 5-HT2A receptor, radioligand binding, read-out: h-5HT2A (converted)
[6] = human cloned 5-HT2C receptor, radioligand binding, read-out: h-5HT2C (converted)
[7] = read-out: NET Reuptake Inhibition (converted)

| IC50 [1, 5] [nM] | IC50 [2, 6] [nM] | IC50 [3, 7] [nM] | IC50 ([4]; read-out: h-D2L (converted)) [nM] | SMILES | also measured |
| --- | --- | --- | --- | --- | --- |
| 12.6 | 12.6 | 398 | 3980 | CN(CCC(=O)O)C[C@H]1CC2=C(O1)c1cc(F)ccc1Cc1ccccc12 [Compound 108] |  |
| 12.6 | 7.94 | 39.8 | 200 | CNCC1CC2=C(O1)c1cc(F)ccc1Oc1ccccc12 (stereo not drawn) [Compound 12] |  |
| 25.1 | 2 | 100 | 1580 | CNCC1CC2=C(O1)c1c(F)cccc1Cc1ccccc12 (stereo not drawn) [Compound 136] |  |
| 10 | 7.94 |  | 3980 | CN(CC(=O)O)C[C@H]1CC2=C(O1)c1cc(F)ccc1Cc1ccccc12 [Compound 107] | melting point: 194.7 °C |
| 6.31 | 15.8 | 5010 | 126 | O=C(c1ccccc1)N1CCN(CC2CC3=C(O2)c2cc(F)ccc2Cc2ccccc23)CC1 (stereo not drawn) [Compound 71] |  |
| 0.501 | 0.631 | 10 | 63.1 | CNC[C@@H]1CC2=C(O1)c1cc(F)ccc1Cc1ccccc12 [Compound 4] | IC50 ([1]; human cloned 5-HT2A receptor expressed in L929 cells, [125I]R91150, read-out: h-5HT2A (converted)): 0.501 nM; IC50 ([2]; human cloned 5-HT2C receptor expressed in CHO cells, [3H]mesulergine, read-out: h-5HT2C (converted)): 0.631 nM |
| 10 | 7.94 | 2510 | 3160 | CNC(=O)CN(C)C[C@H]1CC2=C(O1)c1cc(F)ccc1Cc1ccccc12 [Compound 116] |  |
| 100 | 50.1 | 79.4 | 3980 | CNC[C@@H]1CC2=C(O1)c1ccccc1[C@@H](C)c1ccccc12 (racemic) [Compound 9] |  |
| 39.8 | 20 | 25.1 | 1580 | C=C1c2ccccc2C2=C(OC(CNC)C2)c2ccccc21 (stereo not drawn) [Compound 11] |  |
| 5.01 | 2.51 | 631 | 3160 | CNCC1CC2=C(O1)c1ccc(F)cc1Cc1ccccc12 (stereo not drawn) [Compound 135] |  |
| 15.8 | 10 | 3980 | 1580 | CCOC(=O)CN(C)C[C@H]1CC2=C(O1)c1cc(F)ccc1Cc1ccccc12 [Compound 113] |  |
| 25.1 | 63.1 | 6310 | 398 | O=C(c1ccccc1)N1CCN(CC2CC3=C(O2)c2cc(F)ccc2Oc2ccccc23)CC1 (stereo not drawn) [Compound 72] |  |
| 50.1 | 20 | 63.1 | 2000 | CNCC1CC2=C(O1)c1ccccc1C(C)c1ccccc12 (stereo not drawn) [Compound 7] |  |

Second part, the molecule before the results:

| SMILES | IC50 [1, 5] [nM] | IC50 [2, 6] [nM] | IC50 [3, 7] [nM] | IC50 ([4]; read-out: h-D2L (converted)) [nM] | also measured |
| --- | --- | --- | --- | --- | --- |
| CN(C)CC1CC2=C(O1)c1ccsc1Cc1ccccc12 (stereo not drawn) [Compound 131] | 39.8 | 7.94 | 794 | 200 | melting point: 174 to 176 °C |
| CN(CC(=O)NS(C)(=O)=O)C[C@H]1CC2=C(O1)c1cc(F)ccc1Cc1ccccc12 [Compound 120] |  |  |  |  | melting point: 88.5 °C |
| O=C(NCc1ccccc1)N1CCN(CC2CC3=C(O2)c2cc(F)ccc2Cc2ccccc23)CC1 (stereo not drawn) [Compound 87] | 631 | 100 | 7940 | 794 |  |
| CCCn1c2c(c3ccccc31)C1=C(CC(CNC)O1)c1ccccc1S2 (stereo not drawn) [Compound 93] | 25.1 | 10 | 100 | 398 |  |
| COc1ccc(OC(=O)N2CCN(CC3CC4=C(O3)c3cc(F)ccc3Cc3ccccc34)CC2)cc1 (stereo not drawn) [Compound 67] |  |  |  |  | IC50 ([1]; h-5HT2A, human cloned 5-HT2A receptor, radioligand binding): 20 nM; IC50 ([2]; h-5HT2C, human cloned 5-HT2C receptor, radioligand binding): 50.1 nM; IC50 ([3]; NET Reuptake Inhibition): 3160 nM; IC50 ([4]; h-D2L): 398 nM |
| C=CCn1c2c(c3ccccc31)C1=C(CC(CNC)O1)c1ccccc1S2 (stereo not drawn) [Compound 95] | 7.94 | 6.31 | 158 | 398 |  |
| CNCC1CC2=C(O1)c1cc(F)ccc1Cc1ccccc12 (stereo not drawn) [Compound 2] | 0.631 | 1 | 15.8 | 79.4 |  |
| Cc1ccc(S(=O)(=O)N2CCN(CC3CC4=C(O3)c3cc(F)ccc3Oc3ccccc34)CC2)cc1 (stereo not drawn) [Compound 50] | 200 | 316 | 1580 | 2000 |  |
| CCS(=O)(=O)N(C)CC1CC2=C(O1)c1cc(F)ccc1Cc1ccccc12 (stereo not drawn) [Compound 127] | 200 | 10 | > 10000 | > 10000 |  |
| O=C(OCc1ccccc1)N1CCN(CC2CC3=C(O2)c2cc(F)ccc2Cc2ccccc23)CC1 (stereo not drawn) [Compound 69] | 501 | 1000 | 7940 | 1260 |  |
| CCNCC1CC2=C(O1)c1cc(F)ccc1Sc1ccccc12 (stereo not drawn) (as salt: oxalate) [Compound 18] |  |  |  |  | melting point: 240.7 °C |
| CC(C)OC(=O)N1CCN(CC2CC3=C(O2)c2cc(F)ccc2Cc2ccccc23)CC1 (stereo not drawn) [Compound 63] | 251 | 501 | > 10000 | 3980 |  |
| CCCn1c2c(c3ccccc31)C1=C(CC(CN(C)C)O1)c1ccccc1S2 (stereo not drawn) [Compound 94] | 126 | 39.8 | 1260 | 1000 |  |
| O=C(OCc1ccccc1)N1CCN(CC2CC3=C(O2)c2cc(F)ccc2Oc2ccccc23)CC1 (stereo not drawn) [Compound 70] | 1000 | 631 | > 10000 | 251 |  |
| CN(C)CC1CC2=C(O1)c1ccccc1Cc1ccccc12 (stereo not drawn) (as salt: oxalate) [Compound 22] |  |  |  |  | melting point: 172.8 °C |
| O=C(NCc1ccccc1)N1CCN(CC2CC3=C(O2)c2cc(F)ccc2Oc2ccccc23)CC1 (stereo not drawn) [Compound 88] | 158 | 100 | 1580 | 1260 |  |
| O=S(=O)(c1ccccc1)N1CCN(CC2CC3=C(O2)c2cc(F)ccc2Cc2ccccc23)CC1 (stereo not drawn) [Compound 48] | 398 | 200 | > 10000 | 3160 |  |
